Test results reported in patent US7943638B2, “Carboxamide compound and use of the same” (Sumitomo Chemical Company, Limited, priority 2005, dated 2011).

System: wheat scab (Fusarium culmorum)
Assay: Wheat scab (Fusarium culmorum) controlling effect test (preventive effect)
Type: in vivo
Details: 500 ppm flowable preparation, foliage spray on wheat (Shirogane komugi), 23° C. high humidity 4 days, then 23° C. greenhouse 3 days
Experimental: A plastic pot was charged with a sand loam, and a wheat (Name of plant variety: Shirogane komugi) was seeded, and was grown for 8 days in a greenhouse. Each flowable preparation of the present compound 4 which had been obtained according to Preparation Example 6 was diluted with water to a predetermined concentration (500 ppm) to prepare a spraying solution. Each spraying solution was foliage-sprayed so that the solution was sufficiently adhered to the above adhered to wheat leaves. After spraying, the wheat was air-dried to an extent that the spraying solution on the leaves was dried, then a spore suspension of wheat scab (Fusarium culmorum) (containing about 2000000 spores per 1 ml of the suspension) was spraying-inoculated (at a ratio of about 2 ml per one plant). After inoculation, the wheat was placed at 23° C. under high humidity for 4 days, then placed in a 23° C. greenhouse for 3 days. Thereafter, the controlling effect was investigated.
As a result, an area of a lesion in a plant treated with the present compound 4 was 10% or less of an area of a lesion in a non-treated plant.

SMILES: Cc1cc(O)c(C(=O)Nc2cccnc2)c(=O)n1C [present compound 4, N-(3-pyridyl)-1,6-dimethyl-4-hydroxy-2-oxo-1,2-dihydropyridine-3-carboxamide]
- area of a lesion in a treated plant relative to area of a lesion in a non-treated plant: ≤ 10%
